# Laboratory results: patent publication US7070807B2, “Branched histidine copolymers and methods for using same” (priority 1999, dated 2006)
# Ends that are not written are not given here.
# Key:
# [1] = tested on: endothelial cells (BAEC); experiment: In vitro transfection with polymer:liposome:DNA complexes, luciferase activity; format: cell-based, bovine
# Description: To further investigate the extent to which histidine order could affect transfection efficiency, four polymer solutions containing a different linear histidine copolymer (H-K (19-mer) (SEQ ID NO:3), HHH-K (20-mer) (SEQ ID NO:6), HH-K (20-mer) (SEQ ID NO:5), or K-HK (21-mer) (SEQ ID NO:9)) were mixed in amounts ranging from 0.125 μl to 2.5 μl with 0.75 μg DNA. The concentration of each of the polymer solutions was […]. After 30 minutes, 1.5 μg of liposomes were added. After adding the delivery compositions to endothelial cells (BAEC) for 4 hours, the cells were washed, and luciferase activity measured 48 hours later (FIG. 14).
# [2] = tested on: MDA-MB-435 cells; experiment: In vitro transfection with polymer:liposome:PCI-Luc complexes, luciferase activity; format: cell-based, human; conditions: for transfection efficiency / uptake of liposomes (sequence order comparison): polymer mixed with DNA then liposomes, cell line not stated; for increase of transfection efficiency of branched polymer compared to the linear H-K polymer: with liposomes and 0.75 μg DNA, optimal dose; for transfection efficiency compared to H-K (19-mer): polymer:liposome:PCI-Luc; for transfection efficiency of the liposome: PCI-Luc complex, polymer vs no polymer (length comparison): 7.5 nmole polymer
# Description: (§1) 4.5×10^4 cells (MDA-MB-435, NIH3T3 or CHO) were initially plated into 24 well dishes. After 48 hours, when the cells were 60 and 80% confluent, cells were transfected with a plasmid encoding luciferase (PCI-Luc). In transfection experiments, the copolymer was initially incubated with PCI-Luc for 30 minutes in OptiM. The amount of copolymer which varied from 0.25 nmole to 15 nmole was mixed with the plasmid or oligonucleotide. The concentration of DNA varied from 0.25 μg to 0.75 μg. No visible aggregation of the polymer with the plasmid DNA was apparent at these concentrations. Cationic liposomes were then added, gently mixed, and then allowed to stand for an additional 30 minutes. The polymer:liposome:DNA complex was then diluted with either OptiM or OptiM+10% serum. In experiments utilizing lysomotropic agents, either chloroquine (Sigma, St. Louis, Mo.) or bafilomycin Al (Sigma) was added to the media at concentrations of 10 ng/ml and 25 μM, respectively. Four hours after transfection, the complexes were removed and DMEM with 10% serum was added. Forty-eight hours later, luciferase levels were measured with the Turner 20/20 luminometer. Duplicates were done for each concentration and each experiment was performed twice.
# [3] = tested on: NIH-3T3 cells; experiment: as above; format: cell-based
# Description: as §1
# [4] = tested on: CHO cells; experiment: as above; format: cell-based, Chinese hamster
# Description: as §1
# [5] = tested on: tumor; experiment: Intratumoral injection of branched polymer carrier of PCI-Luc, gene expression; format: in vivo; conditions: injected intratumorally
# Text: FIG. 20. Comparison of the in vitro and in vivo transfection efficiencies of branched transport polymers having different lysine content. In contrast to in vitro experiments, local injection of a branched polymer with a lower lysine content enhanced transfection. A) In vitro comparison of HH-K4b and HHH-K4b as gene delivery carriers of PCI-Luc.
# In place of lysine or other cationic amino acids (e.g., ornithine and arginine), other amino acids may be substituted. The preferred amino acids to be substituted for lysines are hydrophilic amino acids such as asparagine or serine.
# [6] = Effect of adding transition metal on transfection efficiency of polymer:liposome:DNA complexes; format: cell-based; conditions: Zn2+ 0 to 2.00 μg/ml added to H-K2b, H-K3b or H-K4b:liposome:DNA
# Description: To determine the effect of adding transition metals on the transfection efficiency of a polymer:DNA complex, 0.25 μg H-K2b, 0.125 μg H-K3b, or 0.125 μg H-K4b were initially mixed with 0.75 μg DNA. After 30 minutes, cationic liposomes were added for 30 minutes. Zn^2+ was then added in an amount ranging from 0 to 2.00 μg/ml. As a control, various amounts of zinc were added to the liposome:DNA complex.
# [7] = tested on: MDA-MB-435 cells; experiment: In vitro transfection with polymer:DNA complex in the absence of liposomes, luciferase activity; format: cell-based, human; conditions: no liposomes
# Description: as §1
# Effect on transfection efficiency of a polymer:DNA complex: To determine the effect of branching on the transfection efficiency of a polymer:DNA complex, 7.5 nmol of H-K or 0.375 nmol of HH-K4b was mixed with PCI-Luc, and luciferase activity was measured as described above.
# HH-K4b and HHH-K4b, respectively, have a histidine to lysine ratio of 1.5 and 2.4, respectively. […] In vitro transfection experiments were performed on MDA-MB-435 cells as described previously in 6.2 and 6.4.3. For the formation of the complex, 3.75 μg of polymer was mixed with 0.75 μg of PCI-Luc, and experiments were performed in a 24-well plates.
# [8] = tested on: mice with 66.1 cell lung metastases; experiment: Intravenous delivery of polymer:liposome:PCI-Luc, lung luciferase activity; format: in vivo; conditions: complex with DOTAP/cholesterol liposomes, tumor laden mice, lungs six hours later
# Description: FIG. 19. Branched transport polymer in combination with liposomes enhanced transfection efficiency when administered intravenously. Two weeks prior to injection of complex, 1.0×10^5 of 66.1 cells (a murine breast cancer cell line) were injected into mice to establish lung metastases. 6 μg of HH-K4b (volume-60 μl) was mixed with 30 μg of PCI-Luc (volume-60 μl). After 40 min, 18 μg of liposomes (DOTAP:cholesterol, volume-60 μl) was added and gently mixed for another 30 min. Total volume of the polymer: liposome: DNA solution is 180 μl. 0.28 μl of 1 M Hepes was mixed with H-K or HH-K4b solution, respectively, to neutralize to approximately pH-7.0. Liposome in complex with PCI-Luc complexes were prepared similarly. 150 μl of the complex solution was injected via the tail vein into the mice. Six hours later, the lungs were homogenized and the luciferase activity was measured in each group.
# The liposomes were composed of DOTAP and cholesterol in a 1 to 1 molar ratio.
# [9] = tested on: MDA-MB-435 cells; experiment: Uptake of polymer:fluorescein-labeled oligonucleotide complex, CytoFluor fluorescence; format: cell-based, human; conditions: no liposomes; 0.75 μg 32-mer; 4 hour incubation, measured 24 hours later
# Description: Effect on uptake of a polymer:oligonucleotide complex: In a second experiment, the same amount of HK or HHK4b was mixed with 0.75 μg of a 5′-end fluorescein-labeled randomly generated oligonucleotide(32-mer) for 30 minutes. This complex was added to the MDA-MB-435 cells for 4 hour incubation. Twenty-four hours later, the cells were then washed, and measured by CytoFluor fluorescence Measurement System. (Millipore, Bedford, Miss.).
# [10] = tested on: MDA-MB-435 tumors in nude mice; experiment: In vivo tumor growth after intratumoral injection of HH-K4b:oligonucleotide complexes (DNAzyme against VEGF receptor mRNA); conditions: SEM in parentheses
# Description: In vivo delivery of pharmaceutical agents. […] In this example, the receptor of VEGF mRNA with a DNA oligonucleotide that has enzymatic activity (also called DNAzyme) (36) was targeted. The VEGF receptor is essential for tumor angiogenesis and consequently tumor growth. After breast cancer cells (MDA-MB-435 cells) were injected into nude mice and the tumors grew to a visible size, the tumor was injected with the therapeutic polymer-DNA complex. The tumor was injected every 5 days for a total of 5 injections. There were 4 treatment groups: 1) untreated, 2) HH-K4B carrier alone, 3) HH-K4b+DNAzyme, and 4) HH-K4b+antisense oligonucleotides. To prepare the complex for injection, 45 μg of the HH-K4b polymer diluted in 150 μl of water was mixed with 24 μg of oligonucleotide, also diluted in 150 μl of water. After formation of the complex for 2 hours, 25 μl of the treatment complex was injected into each tumor. The therapeutic oligonucleotide sequence is 5′-TGCTCTCCA-GGCTAGCTACAACGA-CCTGCACCT-3′ (SEQ ID NO:18) whereas the control antisense oligonucleotide sequence is 5′-TGCTCTCCA-GGCTATGTACAACGA-CCTGCACCT-3′. (SEQ ID NO:19) The only difference between the therapeutic DNAzyme sequence and the antisense sequences is that the nucleotides responsible for cleaving the mRNA have been altered with the antisense DNA.
molecule,measurement,setting,value
[KKHHHKHHHKKHHHKHHHKK] (KKHHHKHHHKKHHHKHHHKK) [HHH-K],"transfection of DNA in combination with liposomes, rank among four polymers",[1]; highest concentration of polymer used,most effective of the four
same,"transfection of DNA in combination with liposomes, rank among four polymers",[1]; lower concentrations of polymer,not as effective as the other three polymers tested
[YGRKKRRQRRRGKHKHKHKHKHKHKHKHK] (YGRKKRRQRRRGKHKHKHKHKHKHKHKHK) [Y-HK],transfection efficiency / uptake of liposomes (sequence order comparison),[2]; presence or absence of serum,accelerated useful transfection efficiency
[K-H-K-H-K-H-K-H-K-G-K-H-K-H-K-H-K-H-K]3 K2 [H-K3b],increase of transfection efficiency of branched polymer compared to the linear H-K polymer,[2]; absence of serum,approximately 10 fold
"H-R (19-mer): arginine-histidine copolymer, SEQ ID NO: 13 (RHRHRHRHRGRHRHRHRHR)",transfection efficiency compared to H-K (19-mer),[2],significantly better than H-K
CO/C1=C\C(C)=C\[C@@H](C)[C@@H](O)[C@@H](C)C/C(C)=C/C=C/[C@H](OC)[C@@H]([C@@H](C)[C@@H](O)[C@H](C)[C@@]2(O)C[C@@H](O)[C@H](C)[C@@H](C(C)C)O2)OC1=O [bafilomycin A1],effect of lysosomotropic agent on transfection of the H-K: liposome: PCI-Luc triplex,[3],significantly increased
same,effect of lysosomotropic agent on transfection of the H-K: liposome: PCI-Luc triplex,[4]; CHO cells,significantly increased
same,increase of transfection efficiency of the H-K: liposome: PCI-Luc triplex by lysosomotropic agent,"[4]; CHO cells, 10 ng/ml bafilomycin added with transfection agents",5 fold
same,effect of lysosomotropic agent on transfection efficiency of the liposome: PCI-Luc complex,[4]; absence of the histidine copolymer,did not enhance the transfection efficiency
CCN(CC)CCCC(C)Nc1ccnc2cc(Cl)ccc12 (stereo not shown) [chloroquine],effect of lysosomotropic agent on transfection of the H-K: liposome: PCI-Luc triplex,[3],significantly increased
same,effect of lysosomotropic agent on transfection of the H-K: liposome: PCI-Luc triplex,[4]; CHO cells,significantly increased
[YGRKKRRQRRRHHKHHKHHKHHKHHK] (YGRKKRRQRRRHHKHHKHHKHHKHHK) [Y-HH],transfection efficiency / uptake of liposomes (sequence order comparison),[2]; presence or absence of serum,significantly enhanced the uptake of liposomes
[KHKHKHKHKGKHKHKHKHKGKHKHKHKHK] (KHKHKHKHKGKHKHKHKHKGKHKHKHKHK) [H-K (29 mer)],"transfection efficiency of the liposome: PCI-Luc complex, polymer vs no polymer (length comparison)",[2],increased the transfection efficiency
same,transfection efficiency compared to the 13 mer,[2]; 7.5 nmole polymer with liposome and DNA,increased transfection efficiency more than the 13 mer
"[K-H-H-H-K-H-H-H-K-H-H-H-K-H-H-H-K]4K3 (KHHHKHHHKHHHKHHHK; also: four copies on branched lysine core (K3)) [HHH-K4b, branched polymer on lysine core]",efficiency as carrier of nucleic acids compared to DOTAP liposomes or HH-K4b carrier,[5],much more efficient as a carrier of nucleic acids
[Zn+2] [zinc],effect of added zinc on transfection efficiency of polymer:liposome:DNA complexes,[6],can enhance transfection efficiency
[K-S-K-S-K-S-K-S-K-G-K-S-K-S-K-S-K-S-K] (KSKSKSKSKGKSKSKSKSK) [S-K (19-mer)],transfection efficiency compared to no polymer,"[2]; absence of serum, with liposome: PCI-Luc",enhanced the transfection efficiency slightly more than when no polymer was added
same,transfection efficiency compared to H-K (19-mer),[2],significantly less effective
[K-H-K-H-K-H-K-H-K-G-K-H-K-H-K-H-K-H-K]4 K3 [H-K4b],increase of transfection efficiency of branched polymer compared to the linear H-K polymer,[2]; absence of serum,approximately 10 fold
[K-H-K-H-K-H-K-G-K-H-K-H-K] (KHKHKHKGKHKHK) [H-K (13 mer)],"transfection efficiency of the liposome: PCI-Luc complex, polymer vs no polymer (length comparison)",[2],increased the transfection efficiency
"KHKHKHKHKGKHKHKHKHK-NH2 [H-K (19-mer), [K-H-K-H-K-H-K-H-K-G-K-H-K-H-K-H-K-H-K]]",morphologic evidence of cellular toxicity due to the polymer,[2]; even at concentrations of 0.5 mM,No morphologic evidence of cellular toxicity
"[K-K-K-K-K-K-K-K-K-G-K-K-K-K-K-K-K-K-K] (KKKKKKKKKGKKKKKKKKK) [poly-L-lysine, reference compound]",effect of serum on transfection efficiency of polymer:liposome carrier,[2]; presence vs absence of 10% serum,markedly decreased in the presence of serum
[KHKHHKHHKHHKHHKHHKHK]4K3 [HH-K4b],in vitro transfection compared to HHH-K4b,"[7]; 3.75 μg polymer, 0.75 μg PCI-Luc",significantly more effective transfection agent in vitro
same,transfection efficiency of polymer:DNA complex compared to linear H-K polymer,[7]; 0.375 nmol HH-K4b vs 7.5 nmol H-K,better
same,"luciferase expression as sole carrier of DNA compared to HH-K3b, HH-K2b and H-K4b",[7]; data not shown,better at enhancing luciferase expression
same,gene (luciferase) expression compared to liposomes only,[8],7 fold
same,uptake of oligonucleotides compared to linear HK polymer: oligonucleotides complex,[9],significantly enhanced uptake
same,"tumor volume, 1st Injection",[10]; measured before 1st injection (baseline),9.5 (1.1)
same,"tumor volume, 2nd Injection","[10]; measured before 2nd injection, intratumoral every 5 days",63.7 (10.7)
same,"tumor volume, 3rd Injection","[10]; measured before 3rd injection, intratumoral every 5 days",134 (30)
same,"tumor volume, 4th Injection","[10]; measured before 4th injection, intratumoral every 5 days",236 (55)
same,"tumor volume, 5th Injection","[10]; measured before 5th injection, intratumoral every 5 days",429 (94)
[K-H-K-H-K-H-K-H-K-G-K-H-K-H-K-H-K-H-K]2 K [H-K2b],increase of transfection efficiency of branched polymer compared to the linear H-K polymer,[2]; absence of serum,approximately 10 fold
same,transport of DNA into cells (luciferase) relative to PEI,"[2]; presence or absence of serum, H-K2b 0.25 μg + DNA 0.75 μg + liposomes 1.5 μg vs PEI 0.5 μg",more than 10 fold
